From patent publication US8809389B2, “Substituted alkynyl phenoxy compounds as new synergists in pesticidal compositions” (Endura S.p.A., priority 2009, dated 2014)

Tests used:
[1] = target: T1, purified resistance-associated esterase (E4) (Myzus persicae, UniProt P35501); experiment: Esterase interference assay (indirect determination of esterase inhibition); type: biochemical; conditions: no esterase = 0%, uninhibited E4 = 100%
T1 construct: 5 g of aphids (stored at −20° C.) were homogenised in 0.02 M phosphate buffer pH 7.0; from tissue; host or cells: whole Myzus persicae aphids, clone 794JZ; homogenate purified over G-25 and DEAE Sepharose Fast Flow
T1 sequence (P35501 24-552): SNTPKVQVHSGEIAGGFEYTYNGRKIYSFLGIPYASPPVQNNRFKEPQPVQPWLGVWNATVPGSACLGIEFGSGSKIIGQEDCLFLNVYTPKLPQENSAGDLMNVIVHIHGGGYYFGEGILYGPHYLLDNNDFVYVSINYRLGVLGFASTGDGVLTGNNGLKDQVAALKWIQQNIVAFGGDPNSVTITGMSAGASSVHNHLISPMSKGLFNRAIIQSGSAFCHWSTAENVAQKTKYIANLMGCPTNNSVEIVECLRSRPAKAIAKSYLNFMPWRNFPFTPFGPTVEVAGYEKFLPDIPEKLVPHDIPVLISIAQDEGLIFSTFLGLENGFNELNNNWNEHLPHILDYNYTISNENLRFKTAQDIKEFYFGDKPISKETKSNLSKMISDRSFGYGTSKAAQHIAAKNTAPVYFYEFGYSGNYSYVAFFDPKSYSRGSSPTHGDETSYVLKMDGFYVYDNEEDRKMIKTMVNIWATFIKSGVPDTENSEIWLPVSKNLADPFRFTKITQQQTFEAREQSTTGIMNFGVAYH
Excerpt: Measuring the in vitro inhibition is not straight forward, as synergists may bind to a site other than the active site.
The esterase used was the well-characterised resistance associated esterase purified from M. persicae, E4, (aphid clone: 794JZ) as per Devonshire (1977) with some modifications(Devonshire A L, The properties of a carboxylesterase from the peach-potato aphid, Myzus persicae (Sulz.) and its role in conferring insecticide resistance. Biochem J 167: 675-683 (1977)). Briefly, 5 g of aphids (stored at −20° C.) were homogenised in 0.02 M phosphate buffer pH 7.0 and centrifuged at 20 000 g for 10 min. The supernatant was passed through a G-25 column using 0.02M Tris/HCl, pH 8.5 buffer. Unretarded fractions containing esterase activity were further chromatographed through DEAF Sepharose Fast Flow (Amersham Biosciences) and eluted with a linear 0-0.35 M NaCl gradient in 500 ml of Tris/HCl as above. Fractions containing carboxylesterase activity in the form of E4 were concentrated, desalted, and buffer exchanged to 0.02 M phosphate pH 7.0 for storage.
Interactions of the purified resistance-associated esterase (E4) with Compound of Example 2, Compound of Example 3, Compound of Example 4, Compound of Example 9 and Compound of Example 11 were performed using the ‘esterase interference assay’, as described by Khot et al., with some modifications. Devonshire A L, The properties of a carboxylesterase from the peach-potato aphid, Myzus persicae (Sulz.) and its role in conferring insecticide resistance. Biochem J 167: 675-683 (1977)). Briefly, stock solutions of novel synergists (3 mM in acetone) were pre-incubated with pure E4, to give a final concentration of 0.03 mM, for 16 h at 4° C. Aliquots (15 μl ) of E4, E4+Compound of Example 2, E4+Compound of Example 3, E4+Compound of Example 4, E4+Compound of Example 9 and E4+Compound of Example 11 were incubated for 1 h with 60 μl of serial dilutions of azamethiphos in 0.02M phosphate buffer, pH 7, in separate wells of a NUNC microplate. Aliquots (25 p1) of house fly head homogenate (source of AChE) were added to each well and incubated for 15 minutes at room temperature. E4 in acetone and buffer only served as the positive and the negative controls respectively. AChE activity was measured at 405 nm using a Tmax kinetic microplate reader (Molecular Devices, Menlo Park, Calif.). Readings were taken automatically for 10 min at 10 s intervals. The rate (mOD min^−1) was calculated by the integrated software, Softmax Pro 4.6. All treatments were performed in triplicate.
No added esterase is giving 0% esterase protection and uninhibited esterase (E4) is giving 100% protection.
The materials and procedure as stated in Example 13, paragraphs 13.1, 13.1.2, 13.1.2.1 and 13.1.2.2. have been used and the following results have been obtained: […]

[2] = test system: pollen beetle, Meligethes aeneus; experiment: Discriminating dose bioassay: α-cypermethrin in mixture with synergist; type: in vivo; conditions: for % Mortality: 24 h
Method: Two pyrethroid resistant populations originating from two different areas in Poland ‘Rogalin'and lebork’ were collected in July 2008. A putative susceptible population, UK population, was also collected in July 2008 in Hertfordshire, UK. All populations were collected from oilseed rape contained adults only and were kept at room temperature before assays were performed.
Bioassays incorporating the compounds (Compound of Example 2 and Compound of Example 3) dissolved in acetone, were carried out using a diagnostic concentration of α-cypermethrin derived from the above full dose response bioassays in a mixture of 0.01 g L^−1 of the compounds. The concentration of α-cypermethrin used for the discriminating dose bioassays was 0.3 ppm α-cypermethrin for the two polish populations, Rogalin and Lebork and 0.03 ppm α-cypermethrin for UK population. Vials treated with the compounds only, dissolved in acetone and acetone only were used as controls. Ten to 15 replicates were used for each treatment depending on insect numbers within the population. Compounds concentrations chosen conferred no mortality in preliminary bioassays.
Treated vials including the pollen beetles were stored in constant environment facilities at 18±2° C. and 16L: 8D. All bioassays were scored at an endpoint of 24 h after exposure to the insecticide. Insects incapable of coordinated movement (after gentle touching with a pencil brush if necessary) were scored as dead.

[3] = test system: P450 enzymes (oxidases) of pollen beetle homogenate; experiment: Oxidase assay: 7-ethoxycoumarin O-deethylation inhibition in pollen beetle homogenate; type: biochemical, Meligethes aeneus; conditions: 3 μl of 10 mM compound, enzyme plus acetone = 100
Method: The ability of the novel compositions comprising the synergists of Formula (I) to inhibit P450 enzymes, a major mechanism conferring resistance to xenobiotics, was measured using pollen beetle homogenate.
Approximately 50 non-sexed adult pollen beetle from each population were homogenised on ice in 1 ml 0.1 M sodium phosphate buffer, pH 7.6, containing, 1 mM EDTA, 1 mM DTT, 1 mM PTU, 1 mM PMSF and centrifuged at 10 000×g for 10 min. The resulting supernatant was used as the enzyme source.
The O-deethylation inhibition by compounds of Example 2 or 3 was measured using 7-ethoxycoumarin (7-EC) according to Ullrich and Weber (Ullrich V and Weber P, The O-dealkylation of 7-ethoxycoumarin by liver microsomes. Z Physiol Chem 353: 1171-1177 (1972)) and adapted to the microplate format as described by DeSousa (De Sousa G, Cuany A, Brun A, Amichot M, Rahmani R, Berge J B, A microfluorometric method for measuring ethoxycoumarin-O-deethylase activity on individual Drosophila melanogaster abdomens: interest for screening resistance in insect populations Analyt. Biochem 229: 86-91 (1995)). Briefly, 7-EC was dissolved in ethanol to make a 20 mM stock solution and diluted by the addition of 0.1 M, pH 7.8 sodium phosphate buffer to give a concentration of 0.5 mM. Fifty microliters of pollen beetle enzyme were added to separate wells of a microplate, followed by the addition of 3 μl 10 mM of either compounds of Example 2 or 3 or acetone only. After 10 min incubation in room temperature, 80 μl 0.5 mM 7-EC was added following by another 5 min at 30° C. The reaction initiated by the addition of 10 μl 9.6 mM NADPH in 0.1 M sodium phosphate, pH 7.8. Enzyme activity was measured in a Victor^2 1420 multilabel counter (Wallac, Milton Keynes, UK) for 60 min with readings taken every 5 min, using an excitation wavelength of 370 nm and an emission wavelength of 460 nm. All assays were performed in triplicate.
The ability of the composition comprising the compounds of Examples 2 and 3 to inhibit oxidases derived from the 3 different pollen beetle populations is presented in Table 7.

Question: How did the “Esterase protection (%) after pre-incubation with compound” value ([1]; Table 2 (Example 13), 0.03 mM compound pre-incubated with E4 16 h at 4° C.) turn out when `CC#CCOc1ccc2c(c1)OCO2` [Example 2, 5-(but-2-ynyloxy)-benzo[1.3]dioxole] was run?
Answer: The value was 10.36%.

Question: What about the “Esterase protection (%) after pre-incubation with compound” value ([1]; second 'TABLE 3' (Example 16), procedure as Example 13) of the same compound?
Answer: The value was 10.35%.

Question: And the “% Mortality” value ([2]; Lebork, 0.3 ppm α-cypermethrin in mixture with 0.01 g L^−1 synergist)?
Answer: Its value is 85.21%.

Question: And the “Mortality” value ([2]; Rogalin and Lebork, 0.3 ppm α-cypermethrin in mixture with 0.01 g L^−1 synergist)?
Answer: Its value is “around 85%”.

Question: What about the “% Mortality” value ([2]; Rogalin, 0.3 ppm α-cypermethrin in mixture with 0.01 g L^−1 synergist) of the same compound?
Answer: The value was 80.56%.

Question: What about the “% Mortality” value ([2]; UK population, 0.03 ppm α-cypermethrin in mixture with 0.01 g L^−1 synergist) of the same compound?
Answer: The value was 71.68%.

Question: What about the “Mortality with the compound only” value ([2]; synergist only, without α-cypermethrin (data not shown)) of the same compound?
Answer: Its value is “No mortality”.

Question: And the “Inhibition of 7-ethoxycoumarin O-deethylation (%)” value (from here on “Inhibition … (%)”) ([3]; Lebork homogenate)?
Answer: The value was −38.98%.

Question: What about the “Inhibition … (%)” value ([3]; Rogalin homogenate) of the same compound?
Answer: The value was −11.25%.

Question: What about the “Inhibition … (%)” value ([3]; UK population homogenate) of the same compound?
Answer: Its value is −9.3%.
